These results are taken from US20020018748A1, “Method for targeted radiotherapy, pain palliation and imaging of osteoblastic skeletal tumors and composition therefore” (priority 2000, published 2002).

Where “and” joins values, the source holds several entries; their conditions need not be identical. Identical values can stand only once.

Series [1] concerns bone metastases from prostate cancer. Nature of the series: Fractional uptake of a tracer dose of ^85Sr chloride by bone metastases, measured with gamma camera / external counting. The format is in vivo, patient. How it is done:
To calculate the activity (mCi or MBq) of the dose of a carrier-free salt of ^89Sr, preferably chloride, to be administered to palliate painful metastases in a patient, 1 mCi (37 MBq) of ^85Sr chloride with standard specific activity [120 μCi (4.44 MBq)/mg of strontium) is injected into the patient and radioactivity in each metastasis is measured 24 hours after injection. The fractional uptake in each metastasis (relative osteoblastic activity) is calculated by expressing the radioactivity measured in each metastasis as a percent of the administered dose. The sum of the fractional uptake in all metastases is taken as the “metastatic burden” of the patient.
Measurements of radioactivity can be guided by a recent bone scan with ^99Tc^m-MDP (methylene diphosphonate). These measurements can be made by external point counting with a collimated scintillation detector, or by using a gamma camera. […]
The gamma camera needs to be equipped with a high-energy collimator. Anterior and posterior images of the lesions are recorded for 15 minutes. […]
The count rate in each metastasis is calculated by the square root of the product of the count rates in the anterior (A) and posterior (P) images divided by e^−μd: [(cps A) ×(cps P)/(e^−μd)]. The exponential term accounts for the attenuation of the gamma photons by the patient's tissues, where μ is the attenuation coefficient for the gamma rays of ^85Sr, previously measured in a water phantom, and d is the patent thickness measured in cm from x-ray images. The attenuation coefficient needs to be experimentally estimated only once; sensitivity should be measured using an ^85Sr source in a soft-tissue phantom before each imaging session because it varies with time. […]
The sum of the fractional uptake of ^85Sr chloride by all detectable metastases (“metastatic burden”), is used to define the activity (mCi or MBq) of ^89Sr chloride needed to palliate painful metastases in a patient. […] The fractional uptake measured in these metastases was 3%, 4%, 7%, 10%, and 17% of the dose respectively, with a total “metastatic burden” of 41% (3+4+7+10+17=41) (Table II). […]

Series [2] deals with bone metastases. The series is described as follows: Theoretical (calculated) distribution of ^89Sr chloride doses in the metastases, from the ^85Sr chloride uptake. To be noted: for total amount of strontium incorporated by all metastases: 4 mCi dose. The format is in vivo, patient. How it is done: The fractional uptake (%) of a standard dose ^89Sr chloride for pain palliation in bone metastasis [4 mCi (148 MBq)] with specific activity of 120 μCi (4.44 MBq)/mg of strontium) (B) is calculated from the fractional uptake (%) of 1 mCi of ^85Sr chloride at the same specific activity (A) is illustrated in Table II.
The fractional uptake (%) of a standard dose of 4.0 mCi (148 MBq) of ^89Sr chloride at the standard specific activity is calculated for each metastasis from the results obtained with ^85Sr chloride. Since the specific activity is the same for both radionuclides, the fractional uptake would be similar if the same physiological conditions are maintained. However, the activity (μCi) and the amount of strontium (mg) incorporated by the metastases would be increased by four times because the activity of the administered dose is increased from 1 mCi to 4 mCi. Theoretically, the fractional uptake of a standard dose of ^89Sr chloride by the metastatic burden would be 41.0% of the dose (1.64 mCi or 60.7 MBq), leaving in blood a remaining fraction of 59% of the dose (2.36 mCi or 87.3 MBq) available for renal excretion and for incorporation by normal bone.
The absolute amount of strontium (mg) incorporated by each lesion can be calculated by multiplying the activity of the administered dose (mCi or MBq) by the fractional uptake by a given metastasis (% of the dose), and dividing the result by the specific activity of the dose (mCi or MBq/mg of strontium):
Strontium (mg)=Activity of the dose (mCi) × fractional uptake (%)/specific activity (mCi/mg Sr)
In Table II it is also appreciated that the fractional uptake is the same for both the activity (μCi) and the absolute amount (mg) of strontium incorporated by the metastases. One mg of strontium corresponds to 3% of the element in the dose. One hundred and twenty μCi of ^89Sr correspond to […] of the activity in the dose. One mCi of strontium chloride with specific activity of 120 μCi/mg of strontium contains 8.333 mg of strontium (Table I), therefore, 4 mCi would contain 33.333 mg of the element. A fractional uptake of 41.0% corresponds to 410 μCi and 3.416 mg when using 1 mCi, and to 1.64 mCi and 13.667 mg when the dose is increased to 4 mCi (Table II). The amount of strontium (mg) taken up by the metastasis per unit time should be constant if the physiological parameters are maintained. Dose calculation may be guided by the relationship of the amount of strontium in carrier-free ^89Sr chloride ([…]) and that which is in an equal amount of its low specific activity counterpart (120 μCi/mg of Sr). The amount of strontium in 4 mCi of low specific activity ^89Sr chloride (120 μCi/mg of Sr), is 33.333 mg, while in carrier-free ^89Sr chloride (17 Ci/mg of Sr) it is reduced to 235.2 ng. The relationship between these quantities would be:
Theoretical distribution of ^89Sr chloride at different specific activities assuming the same fractional uptake (% of the dose) by the metastases. (A) ^89Sr chloride with low specific activity [120 μCi (4.44 MBq)/mg of strontium]; (B) carrier-free ^89Sr chloride [17 Ci (629 GBq)/mg of strontium] is illustrated in Table III.
If the “metastatic burden” takes up 41% of a 4mCi dose of the low specific activity ^89Sr chloride (13.664 mg of strontium) (Tables II and III), it is evident that the very small amount of strontium in the carrier-free ^89Sr chloride dose (235.2 ng) would be totally incorporated by the metastases, resulting in a fractional uptake of 100% y the metastatic burden. To correct for this effect, the data in Table IlI should be multiplied by the ratio between 100% uptake and the fractional uptake by the metastatic burden by using 89Sr chloride at the lower specific activity. In this case, the ratio is 100%/41%=2.439. […]

For series [3], the system named is metastatic lesions in bone. The series is described as follows: Absorbed radiation dose estimates by direct measurements of radioactivity in bone metastases. The class given is in vivo. The note with it: after 4 mCi (148 MBq), 120 μCi/mg of strontium. An excerpt: Absorbed radiation dose estimates for metastatic lesions in bone, obtained by direct measurements of radioactivity in bone metastases after the administration of 4 mCi (148 MBq) of ^89Sr chloride at standard specific activity (120 μCi [4.44 MBq]/mg of strontium), varied from 1.3 to 64 Gy, with a mean of 18±16 Gy. The average total absorbed dose in normal bone sites was 1.1±0.4 Gy. The metastases (target) to normal bone (non-target) dose ratio in individual samples varied from 8±4 to 40±25. If compared to absorbed radiation dose provided by external beam radiotherapy, the absorbed radiation dose delivered by ^89Sr chloride should be large enough to produce a therapeutic effect on the metastases. But absorbed radiation doses delivered by ^89Sr chloride may not be compared with those delivered by external beam radiotherapy because the different dose rates used in each methodology. External beam radiotherapy delivers very high dose rates in a very short time, while ^89Sr chloride provides very low dose rates during a long period. These differences reduce the biological effect of a given dose of ^89Sr because there is repair of sublethal damage.

Series [4] has as its system painful bone metastases. The note with it: cited from earlier work.
For series [5] the following is noted: intravenous single injection; reduced by slow administration over at least two minutes; cited from earlier work.
For series [6], the system named is bone marrow. The note with it: repeat doses at 3-month intervals; cited from earlier work.
Series [7] concerns metastases. To be noted: in vivo; cited from earlier work.
The mark [8] stands for this setting: standard dose 4 mCi (148 MBq), 120 μCi/mg of strontium, theoretical.
Where [9] appears, read: standard dose 4 mCi, 120 μCi/mg of strontium, theoretical.
Where [10] appears, read: carrier-free, 1.64 mCi dose, theoretical.

Take `[85Sr+2].[Cl-].[Cl-]` [^85Sr Chloride (120 μCi/mg Sr), ^85Sr chloride]: in series [1] (1 mCi dose, 120 μCi/mg Sr, 24 hours after injection, r8-r12 = metastasis 1-5, r13 = Total, one patient), the “Uptake (%)” value was 7.0% and 10.0% and 17.0% and 41.0% and 3.0% and 4.0%. The “fractional uptake measured in these metastases” value in series [1] (1 mCi, 120 μCi/mg of strontium, five metastases of one patient with prostate cancer, values respectively) is 3 % of the dose and 4 % of the dose and 7 % of the dose and 10 % of the dose and 17 % of the dose. In series [1] (1 mCi, 120 μCi/mg of strontium, one patient, five metastases), the “total "metastatic burden" (sum of fractional uptake in all metastases)” value is given as 41%.
In the case of `[89Sr+2].[Cl-].[Cl-]` [^89Sr Chloride (120 μCi/mg Sr), ^89Sr chloride], the “total amount of strontium incorporated by all metastases” value (“total amount of strontium incorporated” below) in series [2] (120 μCi/mg of strontium, theoretical) is on record as 13.664 mg. The “total amount of strontium incorporated” value in series [2] (120 μCi/mg of strontium, theoretical, listed as low specific activity ^89Sr chloride) is recorded as 13.664 mg. Further, the “total amount of strontium incorporated” value in series [2] (120 μCi/mg of strontium, theoretical, listed as low specific activity ^89Sr chloride (120 μCi/mg of Sr)) was 13.667 mg. For the same compound, the mean fractional uptake in series [2] (over the five metastases of Table II) is listed as 8.2%. Further, in series [2] (setting [8]), the “activity taken up by the metastatic burden” value is 1.64 mCi and the “fractional uptake by the metastatic burden” value was 41 % of the dose. In series [2] (standard dose 4 mCi (148 MBq), 120 μCi/mg of strontium, theoretical, listed as low specific activity ^89Sr chloride), the “fractional uptake by the metastatic burden” value is 41 % of the dose. In series [2] (setting [9]), the “activity remaining in blood, available for renal excretion and incorporation by normal bone” value is on record as 2.36 mCi; the “fraction remaining in blood, available for renal excretion and incorporation by normal bone” value is 59 % of the dose. Also, in series [3], the “absorbed radiation dose for metastatic lesions in bone, mean” value was 18±16 Gy; the “average total absorbed dose in normal bone sites” value is given as 1.1±0.4 Gy; the “metastases (target) to normal bone (non-target) dose ratio in individual samples” value was 8-40. Moreover, the “duration of response, mean” value in series [4] (after ^89Sr administration) is listed as 6 months. In series [4] (survey in the United States in 1995, patients treated with bone-seeking radionuclides), the “overall effective pain palliation” value is recorded as 81%. Further, the “patients achieving a complete remission of pain” value in series [4] (survey in the United States in 1995) is 15%. In addition, in series [5], the “effect during the injection” value is given as “facial flushing during the injection”. In addition, the “toxicity of additional injections” value in series [6] is “no major toxicity”. For the same compound, the “ratio of the uptake by metastases as compared to the uptake in normal bones” value in series [7] is on record as “higher than 10 to 1”.
For `[89Sr+2].[Cl-].[Cl-]` [^89Sr Chloride (17 Ci/mg Sr), ^89Sr chloride], the “fractional uptake by the metastases relative to the same activity at standard specific activity” value in series [2] (4 mCi (148 MBq) carrier-free vs 120 μCi/mg, ratio 100%/41%) is 2.439 times. For the same compound, in series [2] (carrier-free, 1.64 mCi (60.68 MBq) dose, metastasis No. 4, No. 5, No. 1, No. 2, No. 3, respectively, listed as carrier-free ^89Sr chloride), the “activity incorporated by individual metastases” value is 400 μCi and 680 μCi and 120 μCi and 160 μCi and 280 μCi. For the same compound, the “ratio metastases to normal bone, theoretical values” in series [2] (carrier-free, 1.64 mCi dose, measured ratio multiplied by 2.439) was 20-98. Moreover, in series [2] (setting [10]), the “absolute amount of strontium taken up by the metastases” value is on record as 96.422 ng and the “fractional uptake by the metastatic burden” value is listed as 100%. Further, the “fractional uptake by the metastatic burden” value in series [2] (carrier-free, 4 mCi dose (235.2 ng strontium), theoretical) is 100%. In addition, in series [2] (carrier-free, 4.1 mCi dose, metastasis 1-5 respectively, listed as carrier-free ^89Sr chloride), the “activity received by individual metastases” value was 300 μCi and 400 μCi and 700 μCi and 1,000 μCi and 1,700 μCi. In addition, the “mean absorbed radiation dose to the metastases” value in series [2] (carrier-free, 5.466 mCi (202.2 MBq) dose, calculated) is given as 60 Gy.
